US20080089910A1, “Attenuated Herpes Simplex Virus Type-2, Vectors Thereof and Immunogenic Compositions Thereof” (priority 2004, published 2008)

Legend:
Assay in all cases: Viral plaque reduction assay, sensitivity to acyclovir
Format in all cases: cell-based, herpes simplex virus type 2
[1] = system: HSV-2 186; settings: Human alphaherpesvirus 2; HSV-2 186 on Vero cells, plaques after 72 hours; read-out: IC50 (50% inhibitory concentration) of acyclovir
Method: (§1) Each of the viruses were plated on Vero cell monolayers in the presence of various concentrations (0-16 μM) of acyclovir. Plaques that formed after 72 hours post infection were counted and the data was used to generate the IC50 of ACV for each virus.
(§2) Plaque reduction assay. Plaque reduction assay was used as described previously (Visalli et al., 2003) with the following modifications. Vero cells were infected with approximately 50 to 100 PFU of virus per well. Acyclovir (ACV) was diluted to the desired concentrations in Dulbecco's Modified Eagle Medium (DMEM) and applied to uninfected Vero monolayers for a thirty minute pre-incubation before the addition of virus. Positive control wells received virus without ACV. Monolayers were incubated for three days at 37° C., fixed, and stained. Plaques were counted, and the data are presented as the mean of at least three independent assays.

[2] = system: UL24Δ; settings: Human alphaherpesvirus 2; UL24Δ on Vero cells, plaques after 72 hours; read-out: IC50 (50% inhibitory concentration) of acyclovir
Method: as §1, §2

[3] = system: UL24R; settings: Human alphaherpesvirus 2; UL24R on Vero cells, plaques after 72 hours; read-out: IC50 (50% inhibitory concentration) of acyclovir
Method: as §1, §2

Measured: IC50

Nc1nc2c(ncn2COCCO)c(=O)[nH]1 [acyclovir]
~3000 nM: all assays above
